ChEMBL document CHEMBL1201862, “PubChem BioAssay data set” (2004)
Active and inactive are the calls of the source.

Assays:
HEK293 [1] = assay: NOD1 signaling inhibitors, primary screen, cell-based, luminescence, uHTS (AID 1578); type: functional; settings: Homo sapiens
HEK293 [2] = assay: cells; type: functional, cell-based; settings: Homo sapiens
HEK293 [3] = assay: cells; type: functional, cell-based; settings: Homo sapiens; remark: listed apart in the source
HEK293 [4] = assay: NOD2 signaling inhibitors in MDP-stimulated cells, cell-based, uHTS, luminescence (AID 2001); type: functional; settings: Homo sapiens
HEK293 [5] = assay: cells; type: functional, cell-based; settings: Homo sapiens; remark: listed apart in the source
HEK293 [6] = assay: cells; settings: Homo sapiens
SUMO-activating enzyme [7] = biological target: T1, SUMO-activating enzyme (Homo sapiens, UniProt Q9UBT2); assay: SUMOylation inhibitor hit validation, confirmation, SUMOylation inhibitor project, biochemical, AlphaScreen (AID 2018); type: functional
SUMO-activating enzyme [8] = biological target: T1, SUMO-activating enzyme; assay: inhibitors of in vitro SUMOylation cascade, primary screen, biochemical, HTRF, uHTS (AID 2006); type: protein-complex assay
Coagulation factor XII = biological target: T2, Coagulation factor XII (Homo sapiens, UniProt P00748); type: functional;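 also: activated factor XIIa alpha cleaving a fluorogenic AMC peptide substrate; inhibitor potency from loss of enzyme activity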
T2 sequence (P00748 whole entry): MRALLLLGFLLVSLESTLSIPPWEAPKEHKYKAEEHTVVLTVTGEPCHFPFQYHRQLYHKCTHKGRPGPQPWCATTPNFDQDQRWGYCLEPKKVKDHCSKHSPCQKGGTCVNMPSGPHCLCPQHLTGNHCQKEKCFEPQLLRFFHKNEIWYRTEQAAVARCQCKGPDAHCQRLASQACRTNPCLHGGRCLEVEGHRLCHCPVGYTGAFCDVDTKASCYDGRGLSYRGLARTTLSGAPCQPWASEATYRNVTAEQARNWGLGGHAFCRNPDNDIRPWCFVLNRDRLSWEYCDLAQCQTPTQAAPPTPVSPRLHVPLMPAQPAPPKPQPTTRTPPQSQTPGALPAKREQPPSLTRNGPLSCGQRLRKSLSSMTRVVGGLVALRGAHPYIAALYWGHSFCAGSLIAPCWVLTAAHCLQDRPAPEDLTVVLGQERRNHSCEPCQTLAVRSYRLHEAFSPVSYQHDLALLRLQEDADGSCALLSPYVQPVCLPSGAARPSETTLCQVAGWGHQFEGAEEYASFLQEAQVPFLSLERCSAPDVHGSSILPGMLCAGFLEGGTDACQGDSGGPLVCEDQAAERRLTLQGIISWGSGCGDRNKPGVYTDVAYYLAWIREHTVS

[9] = biological target: T3, Carboxy-terminal domain RNA polymerase II polypeptide A small phosphatase 1 (Homo sapiens, UniProt Q9GZU7); assay: inhibitors of CTDSP1, concentration-response testing, biochemical assay, absorbance-based, actives from ultra-high-throughput screening (AID 540297); type: functional
T3 sequence (Q9GZU7 whole entry): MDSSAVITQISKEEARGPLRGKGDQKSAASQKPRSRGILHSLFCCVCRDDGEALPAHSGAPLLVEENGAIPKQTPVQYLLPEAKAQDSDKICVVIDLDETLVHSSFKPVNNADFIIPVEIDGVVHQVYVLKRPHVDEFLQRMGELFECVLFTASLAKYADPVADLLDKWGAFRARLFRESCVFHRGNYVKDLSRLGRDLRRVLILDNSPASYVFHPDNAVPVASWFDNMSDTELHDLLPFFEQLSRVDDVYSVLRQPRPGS

[10] = biological target: T4, Tyrosine-protein phosphatase non-receptor type 22 (Homo sapiens, UniProt Q9Y2R2); assay: LYP1 Fluorescent Assay using OMFP substrate for In Vitro dose response studies. [Related pubchem assays (depositor defined):AID1779, AID1784, AID435024]
T4 sequence (Q9Y2R2 whole entry): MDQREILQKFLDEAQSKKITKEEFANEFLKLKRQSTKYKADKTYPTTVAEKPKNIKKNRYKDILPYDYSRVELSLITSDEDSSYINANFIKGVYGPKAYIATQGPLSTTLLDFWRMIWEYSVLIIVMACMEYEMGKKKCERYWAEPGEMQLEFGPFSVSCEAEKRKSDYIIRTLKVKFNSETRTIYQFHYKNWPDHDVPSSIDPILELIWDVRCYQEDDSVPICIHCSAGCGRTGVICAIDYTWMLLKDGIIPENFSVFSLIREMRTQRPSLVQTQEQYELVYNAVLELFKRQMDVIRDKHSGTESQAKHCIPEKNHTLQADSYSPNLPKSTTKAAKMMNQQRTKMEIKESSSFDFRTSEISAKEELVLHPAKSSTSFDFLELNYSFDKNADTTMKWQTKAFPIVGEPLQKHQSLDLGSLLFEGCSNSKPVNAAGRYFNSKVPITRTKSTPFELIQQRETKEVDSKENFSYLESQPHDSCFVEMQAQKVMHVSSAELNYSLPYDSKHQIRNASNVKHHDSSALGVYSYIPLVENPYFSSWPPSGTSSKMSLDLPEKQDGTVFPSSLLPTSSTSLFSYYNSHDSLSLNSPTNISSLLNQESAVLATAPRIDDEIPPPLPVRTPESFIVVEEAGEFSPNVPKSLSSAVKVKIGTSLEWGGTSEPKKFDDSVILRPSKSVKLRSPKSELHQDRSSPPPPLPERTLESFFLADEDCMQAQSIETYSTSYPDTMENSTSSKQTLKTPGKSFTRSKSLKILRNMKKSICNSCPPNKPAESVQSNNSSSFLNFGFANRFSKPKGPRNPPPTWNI

[11] = biological target: T5, Dual specificity protein phosphatase 3 (Homo sapiens, UniProt P51452); assay: VHR1 phosphatase inhibitors, primary screen, biochemical, absorbance, uHTS (AID 1654)
[12] = biological target: T6, Tyrosine-protein phosphatase non-receptor type 7 (Homo sapiens, UniProt P35236); type: functional
T6 sequence (P35236 whole entry): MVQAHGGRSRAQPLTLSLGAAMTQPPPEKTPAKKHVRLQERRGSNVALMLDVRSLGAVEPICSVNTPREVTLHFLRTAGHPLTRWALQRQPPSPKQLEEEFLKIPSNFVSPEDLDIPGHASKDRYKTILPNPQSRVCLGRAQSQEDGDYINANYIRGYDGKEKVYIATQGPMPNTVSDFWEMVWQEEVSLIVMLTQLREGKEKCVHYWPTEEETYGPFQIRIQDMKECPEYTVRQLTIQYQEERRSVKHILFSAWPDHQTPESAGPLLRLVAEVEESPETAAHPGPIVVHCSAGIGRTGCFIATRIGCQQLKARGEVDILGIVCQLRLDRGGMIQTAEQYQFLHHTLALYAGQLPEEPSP

[13] = biological target: T6, Tyrosine-protein phosphatase non-receptor type 7; assay: HTS HePTP Fluorescent Assay using OMFP substrate for In Vitro dose response studies. [Related pubchem assays (depositor defined):AID1059, AID1077, AID1784, AID2068, AID2085, AID435032, AID521]; type: functional
[14] = biological target: T4, Tyrosine-protein phosphatase non-receptor type 22; assay: inhibitors of LYP phosphatase, biochemical, fluorescence intensity, uHTS (AID 1779)
[15] = biological target: T5, Dual specificity protein phosphatase 3; assay: VHR1 phosphatase inhibitors, biochemical (AID 1878)
[16] = biological target: T7, Dual specificity protein phosphatase 6 (Rattus norvegicus, UniProt Q64346); assay: MKP-3 phosphatase inhibitors, primary screen, biochemical, rat enzyme, in vitro (AID 425)
T7 sequence (Q64346 whole entry): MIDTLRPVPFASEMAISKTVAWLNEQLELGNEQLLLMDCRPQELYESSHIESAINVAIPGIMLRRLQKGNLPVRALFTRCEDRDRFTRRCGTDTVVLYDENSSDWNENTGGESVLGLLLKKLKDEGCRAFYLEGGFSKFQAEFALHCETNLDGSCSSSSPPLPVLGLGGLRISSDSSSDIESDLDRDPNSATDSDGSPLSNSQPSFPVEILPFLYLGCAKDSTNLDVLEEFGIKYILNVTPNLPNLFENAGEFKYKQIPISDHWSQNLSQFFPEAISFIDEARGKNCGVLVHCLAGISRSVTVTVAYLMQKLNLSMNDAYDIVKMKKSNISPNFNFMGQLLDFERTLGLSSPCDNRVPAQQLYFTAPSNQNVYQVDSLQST

[17] = biological target: T4, Tyrosine-protein phosphatase non-receptor type 22; assay: SAR LYP1 Fluorescent Assay using pCAP substrate for In Vitro dose response studies - Set 2. [Related pubchem assays (depositor defined):AID1779, AID1784, AID2135, AID449727]; type: functional
[18] = biological target: Tyrosine-protein phosphatase non-receptor type 12 (Homo sapiens, UniProt Q05209); assay: SAR Selectivity Analysis of small molecule inhibitors of PEST using pCAP in a fluorescence assay. [Related pubchem assays (depositor defined):AID1779, AID1784, AID2135]; type: functional
[19] = biological target: T4, Tyrosine-protein phosphatase non-receptor type 22; assay: SAR LYP1 Fluorescent Assay using OMFP substrate for In Vitro dose response studies - Set 3. [Related pubchem assays (depositor defined):AID1779, AID1784, AID2140, AID2686]; type: functional
[20] = biological target: T6, Tyrosine-protein phosphatase non-receptor type 7; assay: HePTP (PTPN7) phosphatase inhibitor potency, SAR follow-up, biochemical, set 2 (AID 449736); type: functional
[21] = biological target: T4, Tyrosine-protein phosphatase non-receptor type 22; assay: LYP (PTPN22) phosphatase inhibitor potency, SAR follow-up, biochemical, pCAP fluorogenic substrate, fluorescence, set 3 (AID 449727); type: functional
[22] = biological target: T4, Tyrosine-protein phosphatase non-receptor type 22; type: functional
[23] = biological target: T4, Tyrosine-protein phosphatase non-receptor type 22; assay: PubChem AID 2135
[24] = biological target: T4, Tyrosine-protein phosphatase non-receptor type 22; assay: PubChem AID 2140
[25] = biological target: T4, Tyrosine-protein phosphatase non-receptor type 22; assay: SAR LYP1 Fluorescent Assay using OMFP substrate for In Vitro dose response studies - Set 2. [Related pubchem assays (depositor defined):AID1779, AID1784, AID2140, AID449726, AID488869]; type: functional
[26] = biological target: T8, Low molecular weight phosphotyrosine protein phosphatase (Homo sapiens, UniProt P24666); type: functional; settings: read-out: IC50_Mean
[27] = biological target: T8, Low molecular weight phosphotyrosine protein phosphatase; type: functional; settings: read-out: IC50_Mean; remark: listed apart in the source
CHO-K1 = assay: (§1) Counterscreen for antagonists of the orexin 1 receptor (OX1R; HCRTR1): Homogeneous time resolved fluorescence (HTRF)-based cell-based dose response assay to identify antagonists of the parental CHO-K1 cell line. [Related pubchem assays (depositor defined):AID434989, AID435008, AID463079, AID485270, AID492963, AID492964, AID492965, AID493232, AID504699, AID504701]; type: functional; settings: Cricetulus griseus
[28] = as §1, with “Fluorescence-based” for “Homogeneous time resolved fluorescence (HTRF)-based”, “cell-based high throughput” for “cell-based”, “CHO” for “CHO-K1”; type: functional
[29] = biological target: T9, Orexin/Hypocretin receptor type 1 (Homo sapiens, UniProt O43613); assay: Homogeneous Time Resolved Fluorescence (HTRF)-based cell-based high throughput dose response assay for antagonists of the orexin 1 receptor (OX1R; HCRTR1). [Related pubchem assays (depositor defined):AID434989, AID435008, AID463079, AID485270, AID492963, AID492964, AID492965, AID493232, AID504717, AID504718]; type: functional
[30] = biological target: T9, Orexin/Hypocretin receptor type 1; assay: Fluorescence-based cell-based high throughput dose response assay for antagonists of the orexin 1 receptor (OX1R; HCRTR1). [Related pubchem assays (depositor defined):AID434989, AID435008, AID463079, AID485270, AID492963, AID492964, AID492965, AID493232, AID504717, AID504718]; type: functional

T5 sequence (P51452 whole entry): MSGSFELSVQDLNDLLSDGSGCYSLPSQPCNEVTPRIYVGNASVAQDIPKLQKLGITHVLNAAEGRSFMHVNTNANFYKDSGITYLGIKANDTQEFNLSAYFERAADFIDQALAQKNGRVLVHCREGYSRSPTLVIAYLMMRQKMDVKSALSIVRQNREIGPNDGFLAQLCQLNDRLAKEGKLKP
T8 sequence (P24666 whole entry): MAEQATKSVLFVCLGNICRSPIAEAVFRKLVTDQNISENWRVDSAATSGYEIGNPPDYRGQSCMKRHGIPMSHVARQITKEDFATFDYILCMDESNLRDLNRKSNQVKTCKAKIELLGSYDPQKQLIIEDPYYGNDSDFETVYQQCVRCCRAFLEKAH
T1 sequence (Q9UBE0 whole entry): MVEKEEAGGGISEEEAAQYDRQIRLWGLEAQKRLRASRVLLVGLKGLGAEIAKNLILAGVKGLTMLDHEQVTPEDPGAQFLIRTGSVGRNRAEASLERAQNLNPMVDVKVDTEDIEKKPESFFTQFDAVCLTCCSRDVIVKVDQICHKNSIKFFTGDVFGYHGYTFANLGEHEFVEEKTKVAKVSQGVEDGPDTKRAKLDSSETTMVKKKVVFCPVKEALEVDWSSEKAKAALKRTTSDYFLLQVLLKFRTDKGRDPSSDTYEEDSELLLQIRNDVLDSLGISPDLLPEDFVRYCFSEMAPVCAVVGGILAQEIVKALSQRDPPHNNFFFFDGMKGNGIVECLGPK
T1 sequence (Q9UBT2 whole entry): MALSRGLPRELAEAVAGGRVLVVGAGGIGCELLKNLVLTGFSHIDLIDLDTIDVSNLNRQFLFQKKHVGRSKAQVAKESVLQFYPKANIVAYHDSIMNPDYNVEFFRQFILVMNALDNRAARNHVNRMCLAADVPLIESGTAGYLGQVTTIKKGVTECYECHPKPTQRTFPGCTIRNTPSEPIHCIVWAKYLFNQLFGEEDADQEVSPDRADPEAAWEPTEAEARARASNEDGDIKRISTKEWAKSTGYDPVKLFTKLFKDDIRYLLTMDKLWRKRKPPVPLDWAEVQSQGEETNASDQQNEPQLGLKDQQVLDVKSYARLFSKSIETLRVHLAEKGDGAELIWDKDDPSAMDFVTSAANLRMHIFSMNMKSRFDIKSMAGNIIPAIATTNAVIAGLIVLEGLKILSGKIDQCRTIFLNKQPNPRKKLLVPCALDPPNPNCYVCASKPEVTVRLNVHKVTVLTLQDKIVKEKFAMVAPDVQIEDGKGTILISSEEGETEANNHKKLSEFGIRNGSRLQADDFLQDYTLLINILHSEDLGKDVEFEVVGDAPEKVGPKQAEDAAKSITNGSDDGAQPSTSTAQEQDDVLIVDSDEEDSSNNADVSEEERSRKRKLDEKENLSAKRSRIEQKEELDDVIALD
T9 sequence (O43613 whole entry): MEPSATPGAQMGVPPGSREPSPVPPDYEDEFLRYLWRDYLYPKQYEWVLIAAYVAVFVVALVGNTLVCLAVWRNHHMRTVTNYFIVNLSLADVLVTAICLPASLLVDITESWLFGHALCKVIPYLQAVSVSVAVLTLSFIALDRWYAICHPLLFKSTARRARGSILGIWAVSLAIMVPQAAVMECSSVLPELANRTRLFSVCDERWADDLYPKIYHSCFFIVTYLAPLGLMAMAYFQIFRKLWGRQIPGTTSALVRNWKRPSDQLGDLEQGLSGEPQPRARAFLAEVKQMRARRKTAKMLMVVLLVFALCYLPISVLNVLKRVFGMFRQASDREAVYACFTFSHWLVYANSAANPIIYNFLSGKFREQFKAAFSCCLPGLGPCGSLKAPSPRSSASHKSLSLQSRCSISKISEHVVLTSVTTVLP
Sequence of Tyrosine-protein phosphatase non-receptor type 12 (Q05209 whole entry): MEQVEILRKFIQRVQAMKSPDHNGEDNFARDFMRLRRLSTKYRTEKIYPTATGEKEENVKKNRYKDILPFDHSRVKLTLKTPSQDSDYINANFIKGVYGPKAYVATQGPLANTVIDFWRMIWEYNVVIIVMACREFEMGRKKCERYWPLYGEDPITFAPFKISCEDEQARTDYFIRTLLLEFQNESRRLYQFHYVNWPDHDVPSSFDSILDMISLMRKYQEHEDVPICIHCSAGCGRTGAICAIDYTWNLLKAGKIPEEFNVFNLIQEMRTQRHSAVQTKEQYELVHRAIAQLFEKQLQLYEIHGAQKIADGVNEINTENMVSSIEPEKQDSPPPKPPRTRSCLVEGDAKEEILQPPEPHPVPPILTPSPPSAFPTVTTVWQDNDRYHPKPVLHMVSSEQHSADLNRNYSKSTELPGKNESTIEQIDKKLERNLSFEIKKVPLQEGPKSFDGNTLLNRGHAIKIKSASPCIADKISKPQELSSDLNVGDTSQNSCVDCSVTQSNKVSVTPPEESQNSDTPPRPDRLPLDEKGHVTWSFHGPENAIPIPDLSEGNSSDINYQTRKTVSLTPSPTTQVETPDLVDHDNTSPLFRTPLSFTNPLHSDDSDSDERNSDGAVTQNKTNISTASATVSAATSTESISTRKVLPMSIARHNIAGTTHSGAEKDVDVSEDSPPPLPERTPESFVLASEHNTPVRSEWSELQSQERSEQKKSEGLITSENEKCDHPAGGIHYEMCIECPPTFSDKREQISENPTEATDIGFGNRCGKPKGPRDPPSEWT

O=C(CSc1nc(O)c2c(-c3ccccc3)csc2n1)Nc1ccccc1
EC50 (HEK293 [1]): 5.71 µM (active) | IC50 (HEK293 [2]): 4.78 µM (active) | IC50 (HEK293 [3]): 16 µM (active) | IC50 (HEK293 [4]): 1.93 µM (active) | IC50 (HEK293 [5]): > 20 µM (inactive) | IC50 (HEK293 [6]): > 20 µM (inactive)

COc1ccc(C2=NN(C(=O)CCCC(=O)O)C(c3cn(-c4ccccc4)nc3-c3ccccc3)C2)cc1 (configuration not stated)
IC50 (SUMO-activating enzyme [7]): 19.8 µM (active) | IC50 (SUMO-activating enzyme [8]): 17.5 µM (active) | IC50 (Coagulation factor XII): > 50 µM (inactive) | IC50 [9]: 3.91 µM (active)

Cc1ccc(/C=C/c2nc(O)c3c(C)c(C(=O)O)sc3n2)cc1[N+](=O)[O-]
IC50 [10]: 16.8 µM (active) | IC50 [11]: 11.1 µM (active) | IC50 [12]: 12.2 µM (active) | IC50 [13]: > 99 µM (inactive) | IC50 [14]: 12.9 µM (active) | IC50 [15]: 1.62 µM (active) | IC50 [16]: 8.48 µM (active) | IC50 [17]: 3.17 µM (active) | IC50 [18]: 3.43 µM (active) | IC50 [19]: 10.7 µM (active) | IC50 [20]: 2.92 µM (active) | IC50 [21]: 6.19 µM (active) | IC50 [22]: 11.2 µM (active) | IC50 [23]: 6.6 µM (active) | IC50 [24]: 50.9 µM (active) | IC50 [25]: 4.56 µM (active) | IC50 [26]: > 80 µM (inactive) | IC50 [27]: 32.7 µM (inactive)

Cn1cc(/C=C(\C#N)C(=O)Nc2ccccc2O)c2ccccc21
IC50 (CHO-K1): > 66.2 µM (inactive) | IC50 [28]: 25 µM (inactive) | IC50 [29]: 4.48 µM (active) | IC50 [30]: 5.57 µM (active)
